Experimental data from patent US10654829B2, “Crystalline forms and compositions of CFTR modulators” (Vertex Pharmaceuticals Incorporated, priority 2017, dated 2020).
“Also recorded” adds a separate entry of the source. Read-outs that look alike come from different tables or passages of the source.

Legend:
pKa determination = assay type: physicochemical
F508del-CFTR [1] = biological target: T1, F508del-CFTR (Homo sapiens, UniProt P13569, DEL508-508); assay: Membrane potential optical (FLIPR) assay for F508del-CFTR modulators; assay type: cell-based; design: expressed in transfected cells
T1 sequence (P13569 with tags, fused parts or gaps DEL508-508): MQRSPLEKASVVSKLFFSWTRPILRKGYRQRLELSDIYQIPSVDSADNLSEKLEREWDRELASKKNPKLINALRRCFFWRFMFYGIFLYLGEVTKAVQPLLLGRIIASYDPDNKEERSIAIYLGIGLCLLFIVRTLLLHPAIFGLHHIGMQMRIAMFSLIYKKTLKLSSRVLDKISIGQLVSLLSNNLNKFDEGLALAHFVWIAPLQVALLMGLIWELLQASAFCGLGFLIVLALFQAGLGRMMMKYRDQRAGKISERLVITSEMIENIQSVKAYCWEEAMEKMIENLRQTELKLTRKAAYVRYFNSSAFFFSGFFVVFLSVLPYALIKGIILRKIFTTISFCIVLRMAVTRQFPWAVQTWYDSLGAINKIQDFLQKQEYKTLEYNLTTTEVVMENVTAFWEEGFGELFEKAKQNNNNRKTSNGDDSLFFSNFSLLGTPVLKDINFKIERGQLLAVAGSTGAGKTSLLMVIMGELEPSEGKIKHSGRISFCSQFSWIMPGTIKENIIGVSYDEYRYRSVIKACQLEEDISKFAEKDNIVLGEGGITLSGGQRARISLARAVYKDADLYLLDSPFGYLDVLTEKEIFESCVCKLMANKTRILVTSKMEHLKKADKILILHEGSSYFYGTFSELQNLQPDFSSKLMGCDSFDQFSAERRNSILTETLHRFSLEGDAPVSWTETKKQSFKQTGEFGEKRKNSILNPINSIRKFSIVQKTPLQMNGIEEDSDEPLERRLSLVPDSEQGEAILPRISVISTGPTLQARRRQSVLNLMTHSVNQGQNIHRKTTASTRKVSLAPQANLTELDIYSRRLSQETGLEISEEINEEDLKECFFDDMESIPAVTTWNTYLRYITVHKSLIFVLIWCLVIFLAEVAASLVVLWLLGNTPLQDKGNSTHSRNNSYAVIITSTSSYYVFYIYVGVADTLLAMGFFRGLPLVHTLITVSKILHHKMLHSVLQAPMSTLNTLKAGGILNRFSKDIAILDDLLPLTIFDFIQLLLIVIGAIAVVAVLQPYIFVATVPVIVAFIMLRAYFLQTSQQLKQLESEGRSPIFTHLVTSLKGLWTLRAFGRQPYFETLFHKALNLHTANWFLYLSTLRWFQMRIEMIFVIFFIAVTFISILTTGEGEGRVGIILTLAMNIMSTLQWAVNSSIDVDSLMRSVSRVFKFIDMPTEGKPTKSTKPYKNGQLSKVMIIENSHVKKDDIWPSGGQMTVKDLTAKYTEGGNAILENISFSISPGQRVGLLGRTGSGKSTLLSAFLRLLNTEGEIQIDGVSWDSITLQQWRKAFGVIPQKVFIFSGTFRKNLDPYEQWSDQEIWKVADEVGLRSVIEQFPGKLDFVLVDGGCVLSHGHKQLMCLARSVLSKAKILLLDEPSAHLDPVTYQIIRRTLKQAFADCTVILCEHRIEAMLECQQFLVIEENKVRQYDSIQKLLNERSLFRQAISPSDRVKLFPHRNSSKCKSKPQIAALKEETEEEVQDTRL
Excerpt: The assay utilizes fluorescent voltage sensing dyes to measure changes in membrane potential using a fluorescent plate reader (e.g., FLIPR III, Molecular Devices, Inc.) as a readout for increase in functional F508del in NIH 3T3 cells. The driving force for the response is the creation of a chloride ion gradient in conjunction with channel activation and concurrent with compound treatment by a single liquid addition step after the cells have previously been loaded with a voltage sensing dye.
To identify modulators of F508del, a fluorescence based HTS assay format was developed. This HTS assay utilizes fluorescent voltage sensing dyes to measure changes in membrane potential on the FLIPR III as a measurement for increase in gating (conductance) of F508del NIH 3T3 cells. The driving force for the response is the creation of a chloride ion gradient in conjunction with channel activation and concurrent with compound treatment by a single liquid addition step after the cells have previously been loaded with a voltage sensing dye.
(in mM) NaCl 160, KCl 4.5, CaCl2) 2, MgCl2 1, HEPES 10, pH 7.4 with NaOH, Glucose 10.
Chloride salts in Bath Solution #1 (above) are substituted with gluconate salts.
NIH3T3 mouse fibroblasts stably expressing F508del are used for optical measurements of membrane potential. The cells are maintained at 37° C. in 5% CO2 and 90% humidity in Dulbecco's modified Eagle's medium supplemented with 2 mM glutamine, 10% fetal bovine serum, 1×NEAA, β-ME, 1× pen/strep, and 25 mM HEPES in 175 cm^2 culture flasks. For all optical assays, the cells were seeded at 12,000 cells/well in 384-well matrigel-coated plates and cultured for 18-24 hrs at 37° C. for the potentiator assay. For the correction assays, the cells are cultured at 37° C. with and without compounds for 18-24 hours.

F508del-CFTR [2] = biological target: T1, F508del-CFTR; assay: Ussing chamber assay, chloride transport in HBE cells; assay type: cell-based; design: CF-HBE were isolated from patients homozygous for F508del; endogenous in cells; host or cells: primary CF human bronchial epithelial cells (F508del/F508del-HBE)
Description: Using chamber experiments were performed on polarized airway epithelial cells expressing F508del to further characterize the F508del modulators identified in the optical assays. Non-CF and CF airway epithelia were isolated from bronchial tissue, cultured as previously described (Galietta, L. J. V., Lantero, S., Gazzolo, A., Sacco, O., Romano, L., Rossi, G. A., & Zegarra-Moran, O. (1998) In Vitro Cell. Dev. Biol. 34, 478-481), and plated onto Costar® Snapwell™ filters that were precoated with NIH3T3-conditioned media. After four days the apical media was removed and the cells were grown at an air liquid interface for >14 days prior to use. […] CF-HBE were isolated from patients homozygous for F508del or compound heterozygous for F508del with a different disease causing mutation on the other allele.
HBE grown on Costar® Snapwell™ cell culture inserts were mounted in an Using chamber (Physiologic Instruments, Inc., San Diego, Calif.), and the transepithelial resistance and short-circuit current in the presence of a basolateral to apical Cl^− gradient (ISC) were measured using a voltage-clamp system (Department of Bioengineering, University of Iowa, IA). Briefly, HBE were examined under voltage-clamp recording conditions (Vhold=0 mV) at 37° C. The basolateral solution contained (in mM) 145 NaCl, 0.83 K2HPO4, 3.3 KH2PO4, 1.2 MgCl2, 1.2 CaCl2, 10 Glucose, 10 HEPES (pH adjusted to 7.35 with NaOH) and the apical solution contained (in mM) 145 NaGluconate, 1.2 MgCl2, 1.2 CaCl2), 10 glucose, 10 HEPES (pH adjusted to 7.35 with NaOH).
Typical protocol utilized a basolateral to apical membrane Cl^− concentration gradient. To set up this gradient, normal ringers was used on the basolateral membrane, whereas apical NaCl was replaced by equimolar sodium gluconate (titrated to pH 7.4 with NaOH) to give a large Cl^− concentration gradient across the epithelium. Modulators were added either to the basolateral side […] to assay or to the apical side during the assay. Forskolin (10 μM) was added to the apical side during the assay to stimulate CFTR-mediated Cl^− transport.

F508del-CFTR [3] = biological target: T1, F508del-CFTR; assay: F508del-CFTR processing and trafficking in vitro (170 to 180 kDa band); assay type: cell-based; design: CF-HBE were isolated from patients homozygous for F508del; endogenous in cells; host or cells: primary CF human bronchial epithelial cells (F508del/F508del-HBE)
Excerpt: Processing and trafficking of F508del-CFTR was directly monitored by the appearance of a 170 to 180 kDa band.

pKa (pKa determination)	EC50 (F508del-CFTR [1]; CFTR Activity, Table 120, read-out: CFTRdF508 EC50)	EC50 (F508del-CFTR [1]; F508del NIH 3T3 cells, membrane potential HTS assay, read-out: EC50)	Emax (F508del-CFTR [1]; NIH3T3, F508del NIH 3T3 cells, relative to Compound II, read-out: % Efficacy relative to Compound II)	chloride transport (F508del-CFTR [2]; F508del/F508del-HBE cells)	effect on chloride transport together with Compound II (F508del-CFTR [2]; F508del/F508del-HBE cells)	increase in steady-state levels, fold of untreated levels (F508del-CFTR [3]; F508del/F508del-HBE cells, 16 to 24 hours, 1 μM Compound I alone)	potentiation of F508del-CFTR delivered to the cell surface by Compound I alone or in combination with Compound II (F508del-CFTR [2]; HBE cells)	Structure (SMILES)	processing and trafficking of F508del-CFTR (F508del-CFTR [3]; in vitro)
4.95 ± 0.06	< 100 nM	< 3000 nM	≥ 100%	enhanced chloride transport	additive to the effect of Compound II	6.5 fold	–	C[C@@H]1CN(c2nc(-n3ccc(OCCC4(C(F)(F)F)CC4)n3)ccc2C(=O)NS(=O)(=O)c2ccccc2)C(C)(C)C1 [Compound I, N-(benzenesulfonyl)-6-[3-[2-[1-(trifluoromethyl)cyclopropyl]ethoxy]pyrazol-1-yl]-2-[(4S)-2,2,4-trimethylpyrrolidin-1-yl]pyridine-3-carboxamide]	improved the processing and trafficking of F508del-CFTR; also recorded: facilitates the processing and trafficking of F508del-CFTR
–	–	–	–	–	–	–	potentiated	CC(C)(C)c1cc(C(C)(C)C)c(NC(=O)c2c[nH]c3ccccc3c2=O)cc1O [Compound III, N-(5-hydroxy-2,4-di-tert-butyl-phenyl)-4-oxo-1H-quinoline-3-carboxamide, reference compound]	–
